Source: patent US5922756A, “Method of inhibiting nitric oxide synthase” (priority 1998, dated 1999)
Like-named read-outs stand apart in the source and are kept apart here.

Legend:
Murine iNOS = biological target: T1, Murine iNOS (Mus musculus, UniProt P29477); assay: Citrulline assay for iNOS enzyme activity ([3H]arginine to [3H]citrulline); assay type: biochemical; conditions: for remaining activity at 800 µM: read-out: citrulline formation (% of control)
T1 construct: purchased Cayman
Experimental: Murine iNOS was extracted from the RAW 264.7 murine macrophages (from the American Type Culture Collection). The cells were stimulated with 20 units/mL cf IFNγ and 0.5 μg/mL LPS, incubated for 4 hr, and then harvested. The washed cells were lysed in 50 mM MOPS buffer (pH 7.0) which contained 1 mM EGTA, 100 mM NaCl, 0.1% 3-[(3-cholamidopropl)dimethylammonio]-2-hydroxy-1-propanesulfonate (CHAPSO), 0.2 mM phenylmethylsulfonyl fluoride, […], and 1 mM leupeptin. After passing through Sephadex G-100 (Pharmacia) to remove arginine, NADPH, and unbound tetrahydrobiopterin, the supernatant was concentrated by ultrafiltration using Centricon 30 microconcentrators (Amicon) (Forstermann et al. 1994; Wolff and Gribin 1994). Murine iNOS, 100,000 g fraction, was also purchased from Cayman.
(§1) Enzyme inhibition studies for iNOS were conducted in 50 mM HEPES buffer (pH 7.4) containing 1 mM calcium chloride, 1 mM magnesium acetate and […]. [^3 H]arginine (New England Nuclear), tetrahydrobiopterin (Biomol), and EGCG were added at the indicated concentrations. Reactions were terminated by the addition of AG 50WX8 resin (Bio-Rad) in HEPES-EDTA buffer (pH 5.5). Enzyme activity was measured by monitoring the conversion of [^3 H]arginine to [^3 H]citrulline (Hevel and Marletta 1994). Reactions were allowed to occur at 37° C. for 10-20 min since time-course analyses had shown that the reaction was linear under these conditions. Background was determined by the level of radioactivity in a reaction mixture from which iNOS was omitted. This amount was subtracted from the level detected in the experimental samples. Enzyme activity, i.e. the amount of citrulline formed, was deduced from the specific activity of the [^3 H]arginine.
Purification of tea catechin polyphenols was performed according to Xie et al. (1993). Enzyme preparation and assay were followed as described in the Methods section of Example 2.

NO production = conditions: LPS- and IFNγ-induced mouse peritoneal cells; Chan et al. 1995; cited from earlier work
iNOS mRNA expression = assay: iNOS gene expression by relative RT-PCR in LPS- and IFNγ-activated mouse peritoneal cells; assay type: cell-based; conditions: 4 hr after LPS + IFNγ stimulation, read-out: iNOS mRNA expression reduced to (% of control, iNOS/GAPDH ratio)
Experimental: (§2) Non-elicited peritoneal exudate cells were obtained from BALB/c mice (Jackson Laboratories) and were cultured at 10^6 /mL as described by Chan et al. (1995). They were stimulated by the addition of 0.01 μg/mL LPS from Salmonella typhosa (Difco Laboratories) and 10 units/mL of IFNγ. At 4 hr after stimulation, total RNA was isolated with a Purescript RNA isolation kit (Gentra). RT-PCR was performed to determine the level of iNOS gene expression. From each sample, 300 ng of RNA was reverse-transcribed using 100 units MMLV reverse transcriptase, 20 units RNase inhibitor, 0.6 mM dNTP, and 0.4 mM Oligo(dT16) (Promega). Then PCR analyses were performed on the aliquots of the cDNA preparations for detecting iNOS and glyceraldehyse 3-phosphate dehydrogenase (GAPDH) gene expression. The reactions occurred in a 50 μL volume, for 23 cycles, with 10 mM Tris-HCl, pH 8.3, 50 mM KCl, 1.5 mM MgCl2, 0.3 mM dNTP, 2.0 units of Taq DNA polymerase, and 50 pmol of 5' and 3' primers. Murine iNOS and GAPDH 5' and 3' primers were purchased from Clontech and used according to manufactures protocols. The products were then separated on 1.6% agarose gel, stained with ethidium bromide, and the intensity of the bands was determined by scanning (Siebert and Kellogg 1995).

[1] = biological target: T2, neuronal nitric oxide synthase (nNOS) (Mus musculus, UniProt Q9Z0J4); assay: Citrulline assay for neuronal NOS enzyme activity (mouse brain 100,000 g fraction); assay type: biochemical; conditions: 0.135 μM arginine, 125 μM tetrahydrobiopterin, read-out: nNOS citrulline formation inhibited by (% compared with control)
T2 construct: fresh brains from BALB/c mice were homogenized; from tissue; host or cells: brain of BALB/c mice, 100,000 g fraction passed through Sephadex G-100
Experimental: as §1
Purification of EGCG was performed according to Xie et al. (1993). Neuronal NOS sample preparation and enzyme activity assay were described in the Methods section of Example 2, with the following modifications. For nNOS, fresh brains from BALB/c mice were homogenized in a 5-fold volume of 50 mM Tris-HCl (pH 7.5) that contained 1 mM EDTA, 5 mM 2-mercaptoethanol and then were centrifuged at 100,000 g for 1 hr, and then the sample was passed through the Sephadex G-100 column. For the nNOS enzyme assay, 5 μM flavin mononucleotide, 5 μM flavin adenine dinucleotide, 10 μg/mL calmodulin (Calbiochem) and 1.25 mM DTT were incorporated in the reaction mixture.

GAPDH mRNA expression = assay: GAPDH (housekeeping gene) mRNA expression by RT-PCR in activated mouse peritoneal cells; assay type: cell-based; conditions: EGCG 1-10 μM, housekeeping gene control
Experimental: as §2

[2] = 800 μM compound, 0.270 μM arginine, 125 μM tetrahydrobiopterin, 126 pmol/min iNOS
[3] = read-out: citrulline formation inhibited to (% of control)

Structure (SMILES)	remaining activity at 800 µM (Murine iNOS; [2]) [%]	EC50 (Murine iNOS) [µM]	Ki (Murine iNOS) [µM]	pattern of inhibition with respect to substrate arginine (Dixon plot) (Murine iNOS; 100-600 μM EGCG, 0.068-0.270 μM arginine)	pattern of inhibition with respect to cofactor tetrahydrobiopterin (Dixon plot) (Murine iNOS; 100-600 μM EGCG, 12-125 μM tetrahydrobiopterin)	remaining activity at 800 µM (Murine iNOS) [%]	inhibition at 50 µM (Murine iNOS; [3]) [%]	inhibition at 250 µM (Murine iNOS; [3]) [%]	inhibition at 500 µM (Murine iNOS; [3]) [%]	inhibition at 750 µM (Murine iNOS; [3]) [%]	NO production measured by nitrite accumulation in the culture medium (NO production)	mrna remaining at 1 µM (iNOS mRNA expression; 1 μM EGCG) [%]	mrna remaining at 3 µM (iNOS mRNA expression; 3 μM EGCG) [%]	mrna remaining at 5 µM (iNOS mRNA expression; 5 μM EGCG) [%]	mrna remaining at 10 µM (iNOS mRNA expression; 10 μM EGCG) [%]	inhibition at 200 µM ([1]; 200 μM EGCG) [%]	inhibition at 400 µM ([1]; 400 μM EGCG) [%]	inhibition at 600 µM ([1]; 600 μM EGCG) [%]	reduction in mRNA expression of GAPDH (GAPDH mRNA expression)
Oc1cc(O)c2c(c1)O[C@H](c1cc(O)c(O)c(O)c1)[C@H](O)C2 [EGC, epigallocatechin]	96	–	–	–	–	–	–	–	–	–	–	–	–	–	–	–	–	–	–
O=C(O[C@@H]1Cc2c(O)cc(O)cc2O[C@@H]1c1ccc(O)c(O)c1)c1cc(O)c(O)c(O)c1 [ECG, epicatechin-gallate]	68	–	–	–	–	–	–	–	–	–	–	–	–	–	–	–	–	–	–
O=C(O[C@@H]1Cc2c(O)cc(O)cc2O[C@@H]1c1cc(O)c(O)c(O)c1)c1cc(O)c(O)c(O)c1 [EGCG, Epigallocatechin-3-gallate]	–	150	130	competitive pattern of inhibition	competitive manner	62	85	40	27	14	reduces NO production	82	74	41	14	79	51	56	not observed
